From ChEMBL document CHEMBL1671751, “FRET-based sensors for the human M1-, M3-, and M5-acetylcholine receptors” (Bioorg Med Chem, 2011) come the findings set out here.

SMILES strings stand for the structures.

What is called EC50 is the midpoint of the concentration-response curve.

The target of test [1] is T1, Muscarinic acetylcholine receptor M5 (Homo sapiens) (UniProt P08912).
T1 sequence (whole entry): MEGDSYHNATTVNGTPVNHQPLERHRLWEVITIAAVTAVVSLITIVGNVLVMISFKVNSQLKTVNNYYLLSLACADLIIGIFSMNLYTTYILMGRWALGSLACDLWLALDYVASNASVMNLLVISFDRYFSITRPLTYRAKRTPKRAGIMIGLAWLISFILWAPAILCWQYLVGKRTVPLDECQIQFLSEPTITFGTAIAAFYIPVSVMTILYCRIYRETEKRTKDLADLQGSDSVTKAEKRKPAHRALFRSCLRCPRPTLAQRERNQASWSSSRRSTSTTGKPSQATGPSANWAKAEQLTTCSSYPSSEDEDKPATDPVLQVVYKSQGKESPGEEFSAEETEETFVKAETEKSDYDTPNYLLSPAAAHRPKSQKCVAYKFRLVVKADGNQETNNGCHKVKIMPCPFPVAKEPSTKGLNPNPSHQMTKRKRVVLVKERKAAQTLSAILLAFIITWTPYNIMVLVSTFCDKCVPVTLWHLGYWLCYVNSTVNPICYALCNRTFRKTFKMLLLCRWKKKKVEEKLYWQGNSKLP
Briefly: Agonist activity at M5-ACh receptor-FLASH/CFP expressed in HEK293 cells assessed as rate constant at 100 uM to 1 mM by FRET method. The class given is functional, cell-based.

Test [2] concerns the target T1, Muscarinic acetylcholine receptor M5 (Homo sapiens). Briefly: Agonist activity at M5-ACh receptor-FLASH/CFP expressed in HEK293 cells assessed as half-maximal activation time at 100 uM to 1 mM by FRET method. The class given is functional, cell-based.
The target of test [3] is Muscarinic acetylcholine receptor M3 (Homo sapiens, UniProt P20309). Briefly: Activation of M3-ACh receptor-FLASH/CFP expressed in HEK293 cells assessed as FRET signal. The format is cell-based.
Muscarinic acetylcholine receptor M3, sequence (P20309 whole entry): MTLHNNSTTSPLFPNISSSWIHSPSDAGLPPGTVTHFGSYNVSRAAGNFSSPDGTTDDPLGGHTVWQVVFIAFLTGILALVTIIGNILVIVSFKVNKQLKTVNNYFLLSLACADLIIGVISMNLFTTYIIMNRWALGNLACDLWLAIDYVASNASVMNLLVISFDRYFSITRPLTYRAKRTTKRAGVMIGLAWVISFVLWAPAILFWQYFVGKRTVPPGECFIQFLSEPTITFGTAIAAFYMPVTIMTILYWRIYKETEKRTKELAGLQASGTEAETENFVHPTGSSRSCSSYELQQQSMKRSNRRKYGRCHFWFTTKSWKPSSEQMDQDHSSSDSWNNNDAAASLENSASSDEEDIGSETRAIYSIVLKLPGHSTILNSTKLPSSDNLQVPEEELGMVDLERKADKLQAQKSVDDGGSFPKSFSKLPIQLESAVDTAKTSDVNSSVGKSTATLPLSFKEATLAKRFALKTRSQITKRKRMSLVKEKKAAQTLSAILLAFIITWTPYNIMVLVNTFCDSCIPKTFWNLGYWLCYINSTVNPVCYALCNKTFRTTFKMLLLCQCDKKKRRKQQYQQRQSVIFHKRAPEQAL
The target of test [4] is T2, Muscarinic acetylcholine receptor M5 (Homo sapiens, UniProt P08912).
T2 sequence (P08912 whole entry): T1 sequence (whole entry)
Briefly: Activation of M5-ACh receptor-FLASH/CFP expressed in HEK293 cells assessed as FRET signal. The class given is cell-based.

In test [5] the target is T3, Muscarinic acetylcholine receptor M1 (Homo sapiens, UniProt P11229).
T3 sequence (P11229 whole entry): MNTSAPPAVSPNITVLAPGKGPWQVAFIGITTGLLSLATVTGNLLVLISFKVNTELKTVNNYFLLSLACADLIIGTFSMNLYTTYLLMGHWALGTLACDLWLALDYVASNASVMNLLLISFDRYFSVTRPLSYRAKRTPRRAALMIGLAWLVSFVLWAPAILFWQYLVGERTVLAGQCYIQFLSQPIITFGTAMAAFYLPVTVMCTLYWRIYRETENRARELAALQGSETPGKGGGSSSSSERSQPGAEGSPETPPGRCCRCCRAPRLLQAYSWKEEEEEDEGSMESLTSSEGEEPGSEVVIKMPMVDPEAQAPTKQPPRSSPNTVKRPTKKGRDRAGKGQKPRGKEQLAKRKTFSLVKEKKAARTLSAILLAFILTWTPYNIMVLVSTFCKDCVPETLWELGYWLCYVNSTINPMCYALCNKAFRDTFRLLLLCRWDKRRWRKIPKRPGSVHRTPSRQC
Briefly: Activation of M1-ACh receptor-FLASH/CFP expressed in HEK293 cells assessed as FRET signal. The class given is cell-based.

On to `C[N+](C)(C)CCOC(N)=O`, for which the Activity in test [1] was 14.7 s⁻¹. Further, the TIME in test [2] was found to be 1.89e-05 h.

With `CC(=O)OCC[N+](C)(C)C`, the Activity in test [1] amounted to 15.4 s⁻¹. Moreover, the TIME in test [2] was determined as 1.81e-05 h.

On to `C[N+](C)(C)CC#CCN1CCCC1=O` [OXOTREMORINE METHIODIDE], for which the EC50 in test [3] is 1.8 µM; in test [4] it was 2.3 µM; in test [5], 7.4 µM. Besides, the Activity in test [1] was found to be 9.6 s⁻¹. Further, in test [2], the TIME worked out at 2.89e-05 h.

With `C[C@@H]1O[C@H](C[N+](C)(C)C)C[C@H]1O` [MUSCARINE CHLORIDE], the results for the EC50 in test [3] and in test [4] were 1 µM and 1.3 µM, respectively. Besides, the Activity in test [1] amounted to 13.9 s⁻¹. Further, the TIME in test [2] was found to be 2e-05 h.
